SMILES strings stand for the structures.

Our source for the DC50 and IC50 values is US20250051347A1, “BIFUNCTIONAL CHIMERIC HETEROCYCLIC COMPOUND AND USE THEREOF AS ANDROGEN RECEPTOR DEGRADER” (Hinova Pharmaceuticals, Inc., priority 2021, published 2025).

The target in assay [1] is T1, androgen receptor (AR) splicing variant AR-v7 (Homo sapiens, UniProt P10275).
T1 construct: The degradation activity of compounds on AR-v7 in 22RV1 cells; host or cells: 22RV1 cells
T1 sequence (P10275 1-644 isoform P10275-3): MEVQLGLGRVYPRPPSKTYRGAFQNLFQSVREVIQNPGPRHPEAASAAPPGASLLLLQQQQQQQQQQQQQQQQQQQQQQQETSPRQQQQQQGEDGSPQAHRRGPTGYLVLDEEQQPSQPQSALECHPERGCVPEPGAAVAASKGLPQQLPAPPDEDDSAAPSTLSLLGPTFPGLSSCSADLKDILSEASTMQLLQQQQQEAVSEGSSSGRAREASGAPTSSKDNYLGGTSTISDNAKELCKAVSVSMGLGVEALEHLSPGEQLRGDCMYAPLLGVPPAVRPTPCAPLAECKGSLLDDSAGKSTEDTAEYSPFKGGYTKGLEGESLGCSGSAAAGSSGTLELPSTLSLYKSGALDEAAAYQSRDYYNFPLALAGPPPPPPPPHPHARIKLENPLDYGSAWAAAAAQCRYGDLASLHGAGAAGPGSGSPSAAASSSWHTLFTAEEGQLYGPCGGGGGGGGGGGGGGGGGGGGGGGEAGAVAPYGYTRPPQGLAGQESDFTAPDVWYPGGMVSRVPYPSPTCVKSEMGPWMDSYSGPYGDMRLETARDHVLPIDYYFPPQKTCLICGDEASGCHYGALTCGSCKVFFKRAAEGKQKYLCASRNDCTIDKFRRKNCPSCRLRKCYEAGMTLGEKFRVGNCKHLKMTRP
As to the kind of experiment: Degradation activity on androgen receptor splicing variant AR-v7 in 22RV1 cells (ELISA). The assay is classed as cell-based. Particulars: AR-v7 degradation in 22RV1 cells, 48 h, class symbols. (In general: An ELISA detects its analyte on a solid surface through an enzyme-linked reagent.)

Another assay has as its system 22RV1 cells. Particulars: Homo sapiens, 22Rv1, 144 h, read-out: 22RV1 IC50 (nM), 22RV1 cells, 6 days culture, CCK-8, OD 450 nm.

As to `CCC(CC)(c1ccc(Oc2cnc(C(C)O)cn2)cc1)c1ccc(O[C@H]2C[C@@H](Nc3ccc4c(c3)C(=O)N(C3CCC(=O)NC3=O)C4=O)C2)cc1` (stereo partly drawn) [Example 295], the DC50 (in general, the concentration at which degradation of the target reaches its halfway point) in assay [1] is under 10 nM. Moreover, the IC50 (in general, the concentration that inhibits the measured activity by half) with 22RV1 cells was 11 nM.

On to `CCC(CC)(c1ccc(Oc2cnc(C(C)=O)cn2)cc1)c1ccc(O[C@H]2C[C@@H](Nc3ccc4c(c3)C(=O)N(C3CCC(=O)NC3=O)C4=O)C2)cc1` (stereo partly drawn) [Example 296], for which the 50% degradation concentration (DC50) in assay [1] was under 10 nM. The concentration for half-maximal inhibition (IC50) in the assay on 22RV1 cells worked out at 7 nM.

In assay [1], `CC(=O)c1nccc(COc2ccc(C(C)(C)c3ccc(OC[C@H](CCCl)Nc4ccc5c(c4)C(=O)N(C4CCC(=O)NC4=O)C5=O)cc3)cc2)n1` (stereo partly drawn) [Example 306] came in with a DC50 of under 10 nM. The IC50 with 22RV1 cells turned out to be 13 nM.

In turn, `CC(=O)c1nccc(COc2ccc(C(C)(C)c3ccc(OC[C@@H]4CCN4c4ccc5c(c4)C(=O)N(C4CCC(=O)NC4=O)C5=O)cc3)cc2)n1` (stereo partly drawn) [Example 308, 5-((S)-2-((4-(2-(4-((2-acetylpyrimidin-4-yl)methoxy)phenyl)propan-2-yl)phenoxy)methyl)azetidin-1-yl)-2-(2,6-dioxopiperidin-3-yl)isoindolin-1,3-dione] had a DC50 in assay [1] of 11 to 100 nM. Further, the IC50 in the assay on 22RV1 cells turned out to be 19 nM.

In turn, `CC(C)(c1ccc(Oc2ncc(N3CC4(COC4)C3)cn2)cc1)c1ccc(O[C@H]2C[C@H](Nc3ccc4c(c3)C(=O)N(C3CCC(=O)NC3=O)C4=O)C2)cc1` (stereo partly drawn) [Example 311] yielded a DC50 in assay [1] of under 10 nM. In the assay on 22RV1 cells, the IC50 amounted to 18 nM.

The compound `Cc1noc(-c2ccc(Oc3ccc(C(C)(C)c4ccc(O[C@H]5C[C@H](Nc6ccc7c(c6)C(=O)N(C6CCC(=O)NC6=O)C7=O)C5)cc4)cc3)nn2)n1` (stereo partly drawn) [Example 331] came in with a DC50 in assay [1] of under 10 nM. The half-maximal inhibitory concentration (IC50) in the assay on 22RV1 cells came to 18 nM.

For the compound `CC(C)(c1ccc(Oc2cccnn2)cc1)c1ccc(O[C@H]2C[C@H](Nc3ccc4c(c3)C(=O)N(C3CCC(=O)NC3=O)C4=O)C2)cc1` (stereo partly drawn) [Example 333, 2-(2,6-dioxopiperidin-3-yl)-5-((1r,3r)-3-(4-(2-(4-(pyridazine-3-oxy)phenyl)propan-2-yl)phenoxy)cyclobutyl)aminoisoindolin-1,3-dione], the DC50 in assay [1] is under 10 nM. For the same compound, the IC50 with 22RV1 cells came out at 3 nM.

For the compound `Cc1nc(-c2ncc(Oc3ccc(C4(c5ccc(O[C@H]6C[C@H](Nc7ccc8c(c7)C(=O)N(C7CCC(=O)NC7=O)C8=O)C6)cc5)CCCCC4)cc3)cn2)no1` (stereo partly drawn) [Example 339], the DC50 in assay [1] was under 10 nM. Also, the 50% inhibitory concentration (IC50) with 22RV1 cells came to 2 nM.

As to `CC(=O)c1nccc(COc2ccc(C(C)(C)c3ccc(OCCCNc4ccc5c(c4)C(=O)N(C4CCC(=O)NC4=O)C5=O)cc3)cc2)n1` (stereo not drawn) [Example 343, 5-((3-(4-(2-(4-((2-acetylpyrimidin-4-yl)methoxy)phenyl)isopropan-2-yl)phenoxy)propyl)amino)-2-(2,6-dioxopiperidin-3-yl)isoindolin-1,3-dione], the DC50 in assay [1] lay in the range of 11 to 100 nM. Also, the IC50 in the assay on 22RV1 cells is 19 nM.

As to `CC(O)c1nccc(COc2ccc(C(C)(C)c3ccc(OCCCNc4ccc5c(c4)C(=O)N(C4CCC(=O)NC4=O)C5=O)cc3)cc2)n1` (stereo not drawn) [Example 345, 2-(2,6-dioxopiperidin-3-yl)-5-((3-(4-(2-(4-((2-(1-hydroxylethyl)pyrimidin-4-yl)methoxy)phenyl)isopropan-2-yl)phenoxy)propyl)amino)isoindolin-1,3-dione], in assay [1], the DC50 lay within 11 to 100 nM. In the assay with 22RV1 cells, the IC50 is 10 nM.

The compound `CCC(CC)(c1ccc(OCCCNc2ccc3c(c2)C(=O)N(C2CCC(=O)NC2=O)C3=O)cc1)c1ccc(OCc2ccnc(C(C)=O)n2)cc1` (stereo not drawn) [Example 350, 5-((3-(4-(3-(4-((2-acetylpyrimidin-4-yl)methoxy)phenyl)pentan-3-yl)phenoxy)propyl)amino)-2-(2,6-dioxopiperidin-3-yl)isoindolin-1,3-dione] yielded a DC50 in assay [1] of 11 to 100 nM. In the assay with 22RV1 cells, the IC50 was 30 nM.

Turning to `CC(=O)c1nccc(COc2ccc(C3(c4ccc(OCCCNc5ccc6c(c5)C(=O)N(C5CCC(=O)NC5=O)C6=O)cc4)CCC3)cc2)n1` (stereo not drawn) [Example 351, 5-((3-(4-(1-(4-((2-acetylpyrimidin-4-yl)methoxy)phenyl)cyclobutyl)phenoxy)propyl)amino)-2-(2,6-dioxopiperidin-3-yl)isoindolin-1,3-dione], the DC50 in assay [1] is under 10 nM. For the same compound, in the assay on 22RV1 cells, the half-inhibitory concentration (IC50) came to 7 nM.

As for `O=C1CCC(N2C(=O)c3ccc(NC4CC(Oc5ccc(C6(c7ccc(OCc8ccnc(N9CC%10(COC%10)C9)n8)cc7)CCC6)cc5)C4)cc3C2=O)C(=O)N1` (stereo not drawn) [Example 356, 5-((3-(4-(1-(4-((2-(2-oxa-6-azaspiro[3.3]heptane-6-yl)pyrimidin-4-yl)methoxy)phenyl)cyclobutyl)phenoxy)cyclobutyl)amino)-2-(2,6-dioxopiperidin-3-yl)isoindolin-1,3-dione], the DC50 in assay [1] is under 10 nM. For the same compound, the IC50 in the assay with 22RV1 cells was 16 nM.

In assay [1], `COc1nccc(COc2ccc(C3(c4ccc(O[C@H]5C[C@H](Nc6ccc7c(c6)C(=O)N(C6CCC(=O)NC6=O)C7=O)C5)cc4)CCC3)cc2)n1` (stereo partly drawn) [Example 357, 2-(2,6-dioxopiperidin-3-yl)-5-(((1r,3r)-3-(4-(1-(4-((2-methoxypyrimidin-4-yl)methoxy)phenyl)cyclobutyl)phenoxy)cyclobutyl)amino)isoindolin-1,3-dione] had a DC50 of under 10 nM. Also, the IC50 with 22RV1 cells was 5 nM.

On to `O=C1CCC(N2C(=O)c3ccc(N[C@H]4C[C@@H](Oc5ccc(S(=O)(=O)c6ccc(OCc7ccnc(N8CC9(COC9)C8)n7)cc6)cc5)C4)cc3C2=O)C(=O)N1` (stereo partly drawn) [Example 363, 5-(((1s,3s)-3-(4-((4-((2-(2-oxa-6-azaspiro[3.3]heptane-6-yl)pyrimidin-4-yl)methoxy)phenyl)sulfonyl)phenoxy)cyclobutyl)amino)-2-(2,6-dioxopiperidin-3-yl)isoindolin-1,3-dione], for which the DC50 in assay [1] was under 10 nM. For the same compound, in the assay with 22RV1 cells, the IC50 stood at 24 nM.

In assay [1], `CC(C)(c1ccc(OCc2ccnc(N3CC4(COC4)C3)n2)c(F)c1)c1ccc(O[C@H]2C[C@H](Nc3ccc4c(c3)C(=O)N(C3CCC(=O)NC3=O)C4=O)C2)c(F)c1` (stereo partly drawn) [Example 365, 5-(((1r,3r)-3-(4-(2-(4-((2-(2-oxa-6-azaspiro[3.3]heptane-6-yl)pyrimidin-4-yl)methoxy)-3-fluorophenyl)isopropan-2-yl)-2-fluorophenoxy)cyclobutyl)amino)-2-(2,6-dioxopiperidin-3-yl)isoindolin-1,3-dione] registered a DC50 of under 10 nM. In the assay on 22RV1 cells, the IC50 came out at 9 nM.

Take `CC(C)(c1ccc(OCc2ccnc(N3CC4(COC4)C3)n2)c(F)c1)c1ccc(O[C@H]2C[C@@H](Nc3ccc4c(c3)C(=O)N(C3CCC(=O)NC3=O)C4=O)C2)c(F)c1` (stereo partly drawn) [Example 366, 5-(((1s,3s)-3-(4-(2-(4-((2-(2-oxa-6-azaspiro[3.3]heptane-6-yl)pyrimidin-4-yl)methoxy)-3-fluorophenyl)isopropan-2-yl)-2-fluorophenoxy)cyclobutyl)amino)-2-(2,6-dioxopiperidin-3-yl)isoindolin-1,3-dione]: in assay [1], the 50% degradation concentration (DC50) is under 10 nM. In addition, in the assay on 22RV1 cells, the IC50 turned out to be 3 nM.

On to `CC(C)(c1ccc(OCc2ccnc(OC3COC3)n2)cc1)c1ccc(O[C@H]2C[C@H](Nc3ccc4c(c3)C(=O)N(C3CCC(=O)NC3=O)C4=O)C2)cc1` (stereo partly drawn) [Example 369, 2-(2,6-dioxopiperidin-3-yl)-5-(((1r,3r)-3-(4-(2-(4-((2-(oxetane-3-yloxy)pyrimidin-4-yl)methoxy)phenyl)isopropan-2-yl)phenoxy)cyclobutyl)amino) isoindolin-1,3-dione], for which the DC50 in assay [1] was under 10 nM. For the same compound, the IC50 with 22RV1 cells was determined as 6 nM.

In assay [1], `CC(=O)c1ncc(Oc2ccc(C3(c4ccc(O[C@H]5C[C@H](Nc6ccc7c(c6)C(=O)N(C6CCC(=O)NC6=O)C7=O)C5)cc4)CC3)cc2)cn1` (stereo partly drawn) [Example 378, 5-(((1r,3r)-3-(4-(1-(4-((2-acetylpyrimidin-5-yl)oxy)phenyl)cyclopropyl)phenoxy)cyclobutyl)amino)-2-(2,6-dioxopiperidin-3-yl)isoindolin-1,3-dione] came in with a half-maximal degradation concentration (DC50) of 11 to 100 nM. For the same compound, in the assay with 22RV1 cells, the IC50 turned out to be 7 nM.

Compound `Cc1nnc(-c2ncc(Oc3ccc(C4(c5ccc(O[C@H]6C[C@H](Nc7ccc8c(c7)C(=O)N(C7CCC(=O)NC7=O)C8=O)C6)cc5)CC4)cc3)cn2)o1` (stereo partly drawn) [Example 379, 2-(2,6-dioxopiperidin-3-yl)-5-(((1r,3r)-3-(4-(1-(4-((2-(5-methyl-1,3,4-oxadiazol-2-yl)pyrimidin-5-yl)oxy)phenyl)cyclopropyl)phenoxy)cyclobutyl)amino)isoindolin-1,3-dione] registered a DC50 in assay [1] of 11 to 100 nM. Moreover, the IC50 in the assay with 22RV1 cells is 17 nM.

For `CCC(CC)(c1ccc(Oc2cnc(-c3noc(C)n3)nc2)cc1)c1ccc(O[C@H]2C[C@H](Nc3ccc4c(c3)C(=O)N(C3CCC(=O)NC3=O)C4=O)C2)cc1` (stereo partly drawn) [Example 380, 2-(2,6-dioxopiperidin-3-yl)-5-(((1r,3r)-3-(4-(3-(4-((2-(5-methyl-1,2,4-oxadiazol-3-yl)pyrimidin-5-yl)oxy)phenyl)pentan-3-yl)phenoxy)cyclobutyl)amino)isoindolin-1,3-dione], the DC50 in assay [1] is under 10 nM. In the assay on 22RV1 cells, the IC50 was determined as 5 nM.
